From PubChem BioAssay AID2060900 (Molecular Pharmacology Branch, DTP, NCI, 2025)

Tested on: 521955-158-R2-J5-PDC complex spheroids, viability
Test: Anticancer human tumor 521955-158-R2-J5-PDC patient-derived pancreatic carcinoma cell line growth inhibition [RAS]
Conditions: for IC50: curve of first compound; for viability, T/C: stronger effect = lower value
Excerpt: RAS pathway inhibitors in Combinations in Complex Spheroids
A high-throughput screen of multi-cell type tumor spheroids was designed to identify active combinations of RAS pathway inhibitors and targeted small molecules. Complex spheroids include a stromal component modeled by human endothelial cells (HUVEC) and fibroblasts modeled by human mesenchymal stem cells (MSCs). The concentration ranges selected for each drug and investigational agent were based upon clinically achievable concentrations if the clinical Cmax of the agent was known.
Compounds. The drugs and investigational agents: abemaciclib (NSC768073), cobimetinib (NSC768068), divarasib (GDC6063, NSC841802), docetaxel (NSC628503), GDC-1971 (RLY-1971, NSC841576), gemcitabine (NSC613327), inavolisib (NSC800729), ipatasertib (NSC767898), KB-0742 (NSC834161), MRTX-1133 (NSC836407), osimertinib (NSC779217), RMC-4630 (NSC839698), RMC-6236 (NSC851965), RMC-6291 (NSC852671), Ro-3306 (NSC812927), sapanisertib (NSC764658), SN-38 (NSC673596), staurosporine (NSC755774), SY5609 (NSC837396), and tovorafenib (DAY101, NSC766906), were obtained from the National Cancer Institute (NCI) Developmental Therapeutics Program Chemical Repository. The FDA-approved anticancer drug set is available from the NCI Developmental Therapeutics Program. […] The stock solutions were prepared in dimethyl sulfoxide (DMSO, Sigma-Aldrich, St. Louis, MO, cat. D2650) at 800-fold the tested concentration and stored at -70 degrees C prior to their use. All drugs and investigational agents were tested over a range starting from a high concentration at or near the clinical Cmax and decreasing in half-log increments. If the clinical Cmax for an agent had not been determined, the highest concentration tested was 10 microM.
Cell Culture. All cells were maintained in an incubator at 37 degrees C and 5% CO2 with 95% humidity. The PDC lines were cultured according to standard operating procedures established by the NCI PDMR. All PDCs were thawed and cultured in Matrigel-coated flasks prepared with a working solution of 1X Ham's F-12 nutrient mix, without supplementation (Invitrogen, Waltham, MA, cat. 11765054), 100 U/mL penicillin-streptomycin (Invitrogen, cat. 15140122), and 2.5% Matrigel (Corning Inc., Corning, NY, cat. 354248) for the first three passages. The 362531-283-R-J2-PDC and 782815-120-R-J1-PDC lines were cultured in 6C/Colon 1B media, which includes advanced DMEM/F-12 (Thermo Fisher Scientific, cat. 12634028), 10 mM HEPES (Thermo Fisher Scientific, cat. 15630080), 1X GlutaMAX supplement (Thermo Fisher Scientific, cat. 35050061), 0.1 mg/mL primocin (InvivoGen, San Diego, CA, cat. ant-pm-2), 10% defined fetal bovine serum, heat inactivated (HyClone Laboratories Inc., Logan, UT, cat. SH30070.03HI), 50% L-WRN conditioned media (ATCC, cat. CRL-3276), 1.25 mM N-Acetyl-L-cysteine (Sigma-Aldrich, cat. A9165), 10 mM nicotinamide (Sigma-Aldrich, cat. N0636), 1X B-27 supplement (Thermo Fisher Scientific, cat. 17504044), 1X N-2 supplement (Thermo Fisher Scientific, cat. 17502048), 50 ng/mL human EGF (Thermo Fisher Scientific, cat. PHG0311), and 10 microM Y-27632 dihydrochloride (Tocris Bioscience, cat. 1254). The K12877-001-R-J1-PDC line was cultured in 6I media, which includes all 6C/Colon 1B media plus 10 ng/mL human FGF-10 (PeproTech, cat. 100-26), 1 ng/mL human FGF-2 (PeproTech, cat. 100-18B), 1 µM prostaglandin E2 (Tocris Bioscience, cat. 2296), […] hydrocortisone (Sigma-Aldrich, cat. H4001), and […] bovine insulin (Sigma-Aldrich, cat. I6634). The K86415-001-R-J1-PDC line was cultured in 6D media, which includes all 6C/Colon 1B media components minus the L-WRN conditioned media. The 485176-168-R4-J1-PDC was cultured in PANC media, which includes all 6C/Colon 1B media plus 100 ng/mL human FGF-10 (PeproTech, cat. 100-26), 500 nM SB-431542 (Selleckchem, cat. S1067), and 10 nM gastrin (Tocris Bioscience, cat. 3006). […]
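Note: compound exposure lasted seven days before the viability read.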
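Throughout, for viability, T/C: spheroids also contain HUVEC endothelial cells and mesenchymal stem cells as stroma.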

## CCC(CC)c1cc(NC2CCC(N)C2)n2nccc2n1 (configuration not stated) + CCn1c(-c2cc(N3CCN(C)CC3)cnc2C(C)OC)c2c3cc(ccc31)-c1csc(n1)CC(NC(=O)C1CC1C)C(=O)N1CCCC(N1)C(=O)OCC(C)(C)C2
Second compound 0.000949 µM
  IC50: < 31.6 nM
Second compound 0.003 µM
  IC50: 31.6 nM
Second compound 0.00949 µM
  IC50: < 31.6 nM
Second compound 0.03 µM
  IC50: < 31.6 nM
Second compound 0.0949 µM
  IC50: < 31.6 nM
Second compound 0.3 µM
  IC50: < 31.6 nM
Second compound 0.000949 µM, first compound 0.0316 µM
  viability, T/C: 39%
Second compound 0.000949 µM, first compound 0.1 µM
  viability, T/C: 50.8%
Second compound 0.000949 µM, first compound 0.316 µM
  viability, T/C: 56%
Second compound 0.000949 µM, first compound 1 µM
  viability, T/C: 48.2%
Second compound 0.000949 µM, first compound 3.16 µM
  viability, T/C: 11.8%
Second compound 0.000949 µM, first compound 10 µM
  viability, T/C: 10.7%
Second compound 0.003 µM, first compound 0.0316 µM
  viability, T/C: 47.5%
Second compound 0.003 µM, first compound 0.1 µM
  viability, T/C: 44.3%
Second compound 0.003 µM, first compound 0.316 µM
  viability, T/C: 50.6%
Second compound 0.003 µM, first compound 1 µM
  viability, T/C: 43%
Second compound 0.003 µM, first compound 3.16 µM
  viability, T/C: 6.49%
Second compound 0.003 µM, first compound 10 µM
  viability, T/C: 10.2%
Second compound 0.00949 µM, first compound 0.0316 µM
  viability, T/C: 34.5%
Second compound 0.00949 µM, first compound 0.1 µM
  viability, T/C: 32.3%
Second compound 0.00949 µM, first compound 0.316 µM
  viability, T/C: 43.7%
Second compound 0.00949 µM, first compound 1 µM
  viability, T/C: 44.4%
Second compound 0.00949 µM, first compound 3.16 µM
  viability, T/C: 9.61%
Second compound 0.00949 µM, first compound 10 µM
  viability, T/C: 8.45%
Second compound 0.03 µM, first compound 0.0316 µM
  viability, T/C: 23.9%
Second compound 0.03 µM, first compound 0.1 µM
  viability, T/C: 23.9%
Second compound 0.03 µM, first compound 0.316 µM
  viability, T/C: 24.4%
Second compound 0.03 µM, first compound 1 µM
  viability, T/C: 21.2%
Second compound 0.03 µM, first compound 3.16 µM
  viability, T/C: 7.51%
Second compound 0.03 µM, first compound 10 µM
  viability, T/C: 7.75%
Second compound 0.0949 µM, first compound 0.0316 µM
  viability, T/C: 12.3%
Second compound 0.0949 µM, first compound 0.1 µM
  viability, T/C: 11.3%
Second compound 0.0949 µM, first compound 0.316 µM
  viability, T/C: 17.4%
Second compound 0.0949 µM, first compound 1 µM
  viability, T/C: 12.1%
Second compound 0.0949 µM, first compound 3.16 µM
  viability, T/C: 9.07%
Second compound 0.0949 µM, first compound 10 µM
  viability, T/C: 8.98%
Second compound 0.3 µM, first compound 0.0316 µM
  viability, T/C: 10.9%
Second compound 0.3 µM, first compound 0.1 µM
  viability, T/C: 10.8%
Second compound 0.3 µM, first compound 0.316 µM
  viability, T/C: 11.7%
Second compound 0.3 µM, first compound 1 µM
  viability, T/C: 12.6%
Second compound 0.3 µM, first compound 3.16 µM
  viability, T/C: 10.9%
Second compound 0.3 µM, first compound 10 µM
  viability, T/C: 8.49%
